Activity calls are given as the source filed them.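 The calls were made as follows: active = mean IC50 for reducing PEG3 promoter reporter signal at or below a set limit, with IC50 above the limit in both counter screens; inactive = the rest, including counter screen hits.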
Legend:
PEG-3 [1] = assay: Peg3 promoter luciferase inhibitors, potency, dose response, cell-based, HeLa, CREF/GAPDH counter-screen panel (AID 624167); details: HeLa PEG-Prom luciferase reporter, overnight, CREF/GAPDH counter-screens
PEG-3 [2] = biological target: PEG-3 (UniProt Q6IN02); assay: as above; details: HeLa PEG-Prom luciferase reporter, overnight, CREF/GAPDH counter-screens, mean of runs
[3] = run 1, dose range 1, individual replicate IC50 per panel
[4] = run 2, dose range 1, individual replicate IC50 per panel

Sequence of PEG-3 (UniProt Q6IN02) (Q6IN02 whole entry, looked up): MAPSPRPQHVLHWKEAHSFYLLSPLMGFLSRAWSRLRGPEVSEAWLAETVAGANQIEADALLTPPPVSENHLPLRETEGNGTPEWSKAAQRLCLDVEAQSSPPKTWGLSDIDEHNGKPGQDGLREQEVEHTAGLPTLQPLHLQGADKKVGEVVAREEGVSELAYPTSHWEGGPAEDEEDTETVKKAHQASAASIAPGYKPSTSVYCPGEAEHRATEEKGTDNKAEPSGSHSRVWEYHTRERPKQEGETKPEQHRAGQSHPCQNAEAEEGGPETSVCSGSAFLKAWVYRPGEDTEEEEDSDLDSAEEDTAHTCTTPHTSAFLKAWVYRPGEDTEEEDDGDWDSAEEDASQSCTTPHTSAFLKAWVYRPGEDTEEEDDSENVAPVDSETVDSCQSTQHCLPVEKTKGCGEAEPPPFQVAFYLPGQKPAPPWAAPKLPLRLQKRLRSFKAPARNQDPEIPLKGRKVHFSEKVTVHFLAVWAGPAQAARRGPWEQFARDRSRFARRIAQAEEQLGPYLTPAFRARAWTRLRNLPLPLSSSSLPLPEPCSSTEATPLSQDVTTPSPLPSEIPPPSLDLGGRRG

Compound	IC50 (PEG-3 [1]; [3])	IC50 (PEG-3 [1]; [4])	IC50 (PEG-3 [2])
COc1cc(NC(=O)c2cccc(C)c2)ccc1NC(=O)c1cc2ccccc2o1	12.9 µM	25.6 µM	19.3 µM
OCCNCc1cc(Br)ccc1OCc1ccc(Cl)cc1Cl	16.9 µM	17.9 µM	17.4 µM
c1cncc(-c2nc(NCC3COc4ccccc4O3)c3ccccc3n2)c1 (configuration not stated)	20.1 µM	38.6 µM	inactive
CN(C)CCCN1c2ccccc2Sc2ccc3ccccc3c21	17.7 µM	16 µM	16.9 µM
NCCCNc1nc(N)c([N+](=O)[O-])c(NC2CCCCC2)n1	10.7 µM	13.9 µM	12.3 µM
Cc1cc(C)c(CN2CCN(CCCn3cnc(C(=O)Nc4ccc(C)c(C)c4)n3)CC2)c(C)c1	19 µM	13.1 µM	16.1 µM
CN1CCN(CCNC(=O)c2ccc3nc(-c4ccc(F)cc4)c(-c4ccc(F)cc4)nc3c2)CC1	19.4 µM	11.3 µM	15.4 µM
CC(=O)Nc1cccc(-c2ccnc3c2CC(C)(C(=O)Nc2cccc(OC(F)(F)F)c2)O3)c1 (configuration not stated)	8.81 µM	25.7 µM	17.3 µM
CC(=O)NC(c1ccccc1)c1cc(Cl)c2cccnc2c1O (configuration not stated)	6.33 µM	12.7 µM	9.5 µM
CCOc1ccc2[nH]c3c(NCCc4ccc(OC)c(OC)c4)ncnc3c2c1	46.3 µM	> 100 µM	inactive
O=C(/C=C/c1cc(Br)ccc1O)c1ccco1	16.1 µM	8.44 µM	12.3 µM
O=S(=O)(N[C@H]1C[C@@H](NS(=O)(=O)OCC(Cl)(Cl)Cl)C2CCCCC21)OCC(Cl)(Cl)Cl (some centres not stated)	15.1 µM	9.83 µM	12.5 µM
CCc1cccc(CC)c1NC(=S)NCCc1c(C)[nH]c2ccc(C)cc12	29.6 µM	13.8 µM	inactive
CN1CCC(N(C)C(=O)/C=C/c2cn(-c3ccccc3)nc2-c2cccs2)CC1	18.4 µM	19.7 µM	19 µM
O=C(NC1CCCCC1)C(c1cccnc1)N(C(=O)CCl)c1cccc(Cl)c1 (configuration not stated)	17.6 µM	13.4 µM	15.5 µM
CCCCCCCCCCCCCCCC(O)C[N+](C)(C)CCO (configuration not stated)	17.7 µM	8.35 µM	13 µM
COc1cccc(/C=C2/Sc3ccc(C(=O)NCCCN4CCCC4)cc3NC2=O)c1	21.4 µM	12.8 µM	17.1 µM
COc1ccc(-c2cc(C(=O)Nc3ccccc3N3CCOCC3)c3ccccc3n2)cc1OC	> 100 µM	> 100 µM	> 100 µM (inactive)
COc1cccc(NC(=O)CN(C)C(=O)c2cccnc2Nc2cccc(C(F)(F)F)c2)c1	22.5 µM	24.2 µM	inactive
C[C@@H]1[C@H]2[C@@H]3CC[C@@H](C3)[C@H]2CN[C@H]1c1cn(Cc2ccccc2)c2ccccc12	39 µM	42.7 µM	inactive
CC(=O)OC(C)(C)/C=C/C(=O)C(C)(O)C1[C@H](O)C[C@@]2(C)C3CC=C4C(CC[C@@H](O)C4(C)C)[C@]3(CO)C(=O)C[C@]12C (some centres not stated)	47 µM	< 0.2 µM	inactive
Oc1ccc(C23CCCC2C2(CCCC2)c2ccc(O)cc2O3)c(O)c1 (configuration not stated)	27.2 µM	54.4 µM	inactive

Compound	IC50 (PEG-3 [1]; [3])	IC50 (PEG-3 [1]; [4])	IC50 (PEG-3 [2])
CC(C)CC(N)c1csc(Nc2ccc(C(=O)N(C)Cc3ccccc3)cn2)n1 (configuration not stated)	14.2 µM	29 µM	inactive
CC(=O)Nc1cccc(NC(=O)c2cc(-c3cccnc3)nc3ccc(Cl)cc23)c1	50.2 µM	59.2 µM	inactive
O=C1NC(=S)NC(=O)C1=Cc1cccn1-c1ccc(O)cc1	18 µM	14.8 µM	16.4 µM
Cc1ccc(C)c(CN2CCC(CNC(=O)Nc3ccc(F)c(Cl)c3)CC2)c1	17.3 µM	12 µM	14.7 µM
CC[C@@H](O)C[C@H]1CCC[C@@]2(C[C@@H]3OC(=O)/C=C/[C@@](C)(O)[C@@H](O)[C@H](C)[C@@H](O)[C@H](OC4CCC(N(C)C)C(C)O4)[C@@H](O)[C@](C)(O)CCCCC/C=C/[C@@H]4CC(C)(C)O[C@@]4(O)C[C@H](O2)[C@H]3C)O1 (some centres not stated)	18.2 µM	13.4 µM	15.8 µM
COc1ccc(N(Cc2cc3cc(OC)ccc3[nH]c2=O)S(=O)(=O)c2ccc(NC(C)=O)cc2)cc1	17.8 µM	11 µM	14.4 µM
Cc1ccc(-c2cc(C(=O)Nc3nccs3)c3ccccc3n2)c(C)c1	32.1 µM	> 100 µM	inactive
Cc1ccc(C(=O)N/C(=C\c2ccc(-c3cccc([N+](=O)[O-])c3)o2)C(=O)NCCCN(C)C)cc1	18.6 µM	15.3 µM	17 µM
COc1ccc(C(c2nnnn2-c2c(C)cccc2C)N2CCC(n3c(=O)[nH]c4ccccc43)CC2)cc1 (configuration not stated)	11.4 µM	11.3 µM	11.3 µM
Cc1cccc(NC(=O)CSc2nc3ccccc3c3nc(CCc4c(C)n[nH]c4C)nn23)c1	27.9 µM	37.7 µM	inactive
COc1ccc(C[C@H]2CN3C(=NC[C@@H]3Cc3ccc(O)cc3)N2C[C@H](C)NC(=O)c2ccc(C)c(Br)c2)cc1	22.7 µM	20.8 µM	inactive
Cc1cc(C)c2sc(N(CCCN(C)C)C(=O)c3ccc(S(=O)(=O)N(C)C4CCCCC4)cc3)nc2c1	18.9 µM	13 µM	16 µM
Cc1ccc(NS(=O)(=O)c2cc3c4c(cccc4c2)C(=O)NC3=O)cc1C	5.99 µM	> 100 µM	inactive
O=C1NC(=O)N(Cc2ccco2)C(=O)/C1=C/C=C/c1ccco1	14.8 µM	12.6 µM	13.7 µM
Cc1ccc(C)c(OCC(O)CN2CCC(CN3C(=O)c4cccc5cccc(c45)C3=O)CC2)c1 (configuration not stated)	18.4 µM	15.9 µM	17.2 µM
CCn1c2ccccc2c2cc(NC(=O)C(C)OC(=O)c3ccc(NC(=O)CC#N)cc3)ccc21 (configuration not stated)	41.9 µM	39.1 µM	inactive
Cc1c(OCC(=O)NC2CC(C)(C)NC(C)(C)C2)ccc2c1oc(=O)c1ccccc12	43.5 µM	> 100 µM	inactive
COc1cc(C=NO)nc(-c2ccccn2)c1	0.84 µM	< 0.2 µM	0.52 µM
Cc1nc(N2CCN(c3ccccc3O)CC2)c2c(-c3ccccc3)csc2n1	29 µM	24.6 µM	inactive
COc1ccc(NS(=O)(=O)c2ccc3ccccc3c2)c2ncccc12	13.5 µM	21.6 µM	17.6 µM
CC(NNC(=S)N1CCN(c2ccccn2)CC1)c1nccc2ccccc12 (configuration not stated)	15.2 µM	36 µM	inactive
CCOc1cc(/C=N/N=C(N)N)ccc1OCc1ccc(Cl)cc1	16.9 µM	9.05 µM	13 µM

Compound	IC50 (PEG-3 [1]; [3])	IC50 (PEG-3 [1]; [4])	IC50 (PEG-3 [2])
N=c1c2c(-c3ccccc3)c(-c3ccccc3)n(Cc3ccccc3)c2ncn1CCO	18.8 µM	10.6 µM	14.7 µM
COC(=O)c1ccccc1-c1ccc(/C=N/Nc2nc(N3CCCC3)nc(N3CCCC3)n2)o1	26.8 µM	34.7 µM	inactive
CN(C)S(=O)(=O)c1cccc(NC(=O)CSc2cccc3cccnc23)c1	23.7 µM	19.6 µM	inactive
COc1ccc(-c2cc(C(=O)N(C)Cc3ccc(OC)c(OC)c3OC)c3ccccc3n2)cc1OC	13.4 µM	30.9 µM	inactive
Cn1cc(CN2CCCC(C(=O)Nc3ccc(-c4cccc(F)c4)cc3)C2)cn1 (configuration not stated)	19.6 µM	29.8 µM	inactive
COc1cccc(/C=N/NC(=O)c2c(-c3ccccc3)noc2C)c1O	42.2 µM	> 100 µM	inactive
COc1ccc(CNC(=O)Nc2nc(C(N)Cc3ccc(F)cc3)cs2)cc1 (configuration not stated)	16.6 µM	12.5 µM	14.6 µM
COC(=O)Cc1[nH]n(-c2nc3ccccc3s2)c(=O)c1C(C)=Nc1ccc(Cl)cc1	24.7 µM	0.372 µM	12.5 µM
O=C(O)CN1C(=O)/C(=C\c2ccccc2OCc2ccc(Cl)cc2Cl)SC1=S	16.6 µM	17.2 µM	16.9 µM
N=c1n(CCN2CCCC2)c2ccccc2n1CC(O)c1ccc(Cl)c(Cl)c1 (configuration not stated)	17.7 µM	9.03 µM	13.4 µM
CCOC(=O)C1CCN(c2cc3c(cc2NC(=O)c2ccccc2OCC)n(C)c(=O)n3C)CC1	35.7 µM	> 100 µM	inactive
COc1ccc(CNCCC(c2ccccc2)c2ccc(OC(C)C)cc2)cc1OC (configuration not stated)	18.1 µM	19.5 µM	18.8 µM
CC[n+]1c(-c2ccccc2)c2cc(N)ccc2c2ccc(N)cc21	7.7 µM	23.6 µM	15.7 µM
CC(=O)c1ccc(Nc2nc(C(N)Cc3ccc(Cl)cc3)cs2)cc1 (configuration not stated)	25.7 µM	15.1 µM	inactive
CC(C)(C)C(=O)Nc1cc2nn(-c3ccccc3)nc2cc1Cl	10.9 µM	13.5 µM	12.2 µM
COc1cc(CNC(C)(C)CO)cc(Br)c1OCc1ccc(Cl)cc1	20.6 µM	12.6 µM	16.6 µM
CCCc1ccc(C(=O)O/N=C(\N)c2ccccn2)cc1	36.5 µM	16.6 µM	inactive
CCOC(=O)c1c(C)[nH]c(C(=O)OCC(=O)Nc2sccc2C(N)=O)c1C	31.1 µM	68.7 µM	inactive
Cc1cnc(NC(=O)C2CC(=O)N(c3cccc(Cl)c3)C2)s1 (configuration not stated)	23.5 µM	3.78 µM	13.6 µM
O=c1[nH]c(=S)[nH]c(O)c1/C=C1\C=Nc2ccccc21	> 100 µM	17.6 µM	inactive
